{"source": "patent US10077236B2", "about": "“Azacyclic constrained analogs of FTY720” (The Regents of the University of California, priority 2013, dated 2018)", "key": {"[1]": {"test_system": "BCR-Abl+ leukemias compared to other cell types", "test": "Ratio of IC50 of compound 6 (177) and its enantiomer compound 5 (39) across cell types", "assay_type": "cell-based", "description": "Another difference between compound 6 and FTY720 or the enantiomer of compound 6, is that compound 6 has a specific and very high activity to BCR-Abl+ leukemias compared to other cell types. This trend is shown in FIG. 10d by calculating the ratio of 1050 for compound 6 (also called 177) and its enantiomer compound 5 (also called 39). If the drugs are similarly effective a ratio near 1 would be expected, and if compound 6 works better (has a lower 1050), a ratio greater than one as with SupB15s would be expected. […] Finally, it is seen that the Ph+ALL primary patient sample has a ratio greater than 1."}, "SphK2 null MEFs": {"test_system": "SphK2 null MEFs", "test": "Sensitivity of SphK2 null MEFs", "assay_type": "cell-based", "protocol": "(§1) The importance of phosphorylation in the activity of compound 6 was then examined. In this study MEF knockout lines that show the same differential sensitivity to compound 6 relative to its enantiomers as leukemia cells were used (FIG. 10h). […] A phosphate and a non-phosphorylatable analog of compound 6 were then tested."}, "[2]": {"test_system": "PC3 prostate cancer cell line", "test": "Cell viability assay, PC3", "assay_type": "cell-based, human", "conditions": "72 h, vital dye exclusion and flow cytometry; read-out: Mean IC50 (+/- SEM) in cell viability assay, PC3 prostate", "protocol": "(§2) Flow cytometry: Much of the biological activity presented is shown through flow cytometry data. […] Here, IC50 flow cytometry assays were used. […] To measure nutrient receptor expression following exposure to FTY720 and azacyclic constrained analogs of FTY720, surface 4F2hc expression was measured after 3 hours of drug treatment by staining 150,000 cells with phycoerythrin-conjugated mouse anti-human CD98 (by BD Biosciences™). Analysis was restricted to viable cells. All samples for the disclosed sets of data were analyzed on a BD LSR II flow cytometer and data analyzed with FlowJo™ software (by Treestar™). IC50's were calculated and statistical tests were performed using GraphPad Prism™."}, "BV173 Ph+ ALL cell line": {"test_system": "BV173 Ph+ ALL cell line", "test": "Cell viability assay, BV173", "assay_type": "cell-based, human", "conditions": "72 h, vital dye exclusion and flow cytometry; read-out: Mean IC50 (+/- SEM) in cell viability assay, BV173 Ph+ ALL", "description": "(§3) Leukemia cell assays: Effects of chemical changes on ability to kill cells as observed in cell viability assays using the BCR-ABL positive human acute lymphoblastic leukemia (ALL) cell line, Sup-B15 are described. Assays using the Sup-B15 cell line were designed to determine efficacy of azacyclic constrained small molecule analogs of FTY720 in killing leukemia cells. Analogs were generated using the synthesis methods mentioned above. Sup-B15 cells were maintained at 2-3 million/mL in RPMI 1640 (by Mediatech™) supplemented with 10% fetal calf serum (by Sigma-Aldrich™), 10 mM Hepes (by Mediatech™), 55 μM β-mercaptoethanol (by Sigma-Aldrich™), 2 mM L-glutamine (by Mediatech™), and antibiotics. BV173, Nalm-6, and Blin-1 were maintained at 1-2 million/mL and CCRF-CEM at less than 500,000/mL in the same medium. BMp190 cells were created by transducing murine bone marrow cells with pMIC-p190 which expresses the p190 isoform of BCR-Abl and human CD4 from an IRES; these cells were kept at 1-2 million/mL in RPMI supplemented as above.\n(§4) Flow cytometry: Much of the biological activity presented is shown through flow cytometry data. […] Here, IC50 flow cytometry assays were used. In them, viability was determined at 72 hours by vital dye exclusion [propium iodide or DAPI (4′,6-diamindino-2-phenylindole)]. To measure nutrient receptor expression following exposure to FTY720 and azacyclic constrained analogs of FTY720, surface 4F2hc expression was measured after 3 hours of drug treatment by staining 150,000 cells with phycoerythrin-conjugated mouse anti-human CD98 (by BD Biosciences™). Analysis was restricted to viable cells.\n(§5) All samples for the disclosed sets of data were analyzed on a BD LSR II flow cytometer and data analyzed with FlowJo™ software (by Treestar™). IC50's were calculated and statistical tests were performed using GraphPad Prism™."}, "[3]": {"test_system": "DU145 prostate cancer cell line", "test": "Cell viability assay, DU145", "assay_type": "cell-based, human", "conditions": "72 h, vital dye exclusion and flow cytometry; read-out: Mean IC50 (+/- SEM) in cell viability assay, DU145 prostate", "protocol": "as §2"}, "[4]": {"test_system": "CCRF-CEM Ph- ALL cell line", "test": "Cell viability assay, CCRF-CEM", "assay_type": "cell-based, human", "conditions": "72 h, vital dye exclusion and flow cytometry; read-out: Mean IC50 (+/- SEM) in cell viability assay, CCRF-CEM Ph- ALL", "description": "as §3, §4, §5"}, "[5]": {"test": "Distribution of compound 6 and its phosphorylated form in plasma, bone marrow and spleen of mice", "assay_type": "in vivo", "conditions": "normalization to total protein; tissues versus blood", "protocol": "A study was then conducted to examine what happens to compound 6 when administered to animals. Mice were treated with 10 mg/kg doses of compound 6 (i.p.) and then the mice were sacrificed at various time points, then plasma, bone marrow, and spleen tissue were extracted to build curves. […] Indeed, the ratio of phosphorylated to unphosphorylated compound 6 in the spleen and bone marrow is close to 1:1 after i.p. administration."}, "SphK1 null MEFs": {"test_system": "SphK1 null MEFs", "test": "Sensitivity of SphK1 null MEFs", "assay_type": "cell-based", "protocol": "as §1"}, "Blin-1 Ph- ALL cell line": {"test_system": "Blin-1 Ph- ALL cell line", "test": "Cell viability assay, Blin-1", "assay_type": "cell-based, human", "conditions": "72 h, vital dye exclusion and flow cytometry; read-out: Mean IC50 (+/- SEM) in cell viability assay, Blin-1 Ph- ALL", "description": "as §3, §4, §5"}, "BCR-Abl- LAX7R cells": {"test_system": "BCR-Abl- LAX7R cells", "test": "Combination with trametinib in BCR-Abl- LAX7R patient leukemia cells", "assay_type": "cell-based, human", "conditions": "some BCR-Abl negative patient leukemia samples", "description": "FIGS. 10n and 10o provide data results from a study of the effectiveness of treating BCR-Abl+ SFO2 cells (10n), and also in BCR-Abl− LAX7R cells (10o), which is a late-stage leukemia resistant to chemotherapy."}, "[6]": {"test": "Mouse heart rate by telemetry", "assay_type": "in vivo", "conditions": "telemetry for 24 h after administration of anti-cancer dose", "description": "As previously discussed, FTY720 itself cannot be used in cancer patients because phosphorylation of FTY720 by SphKs makes FTY720-P, which acts at S1P receptors to cause bradycardia and immunosuppression (on-target effect for primary use)."}}}
{"smiles": "CCCCCCCCc1ccc(CO[C@@H]2CN[C@@H](CO)C2)cc1.Cl", "note": "[Compound 6]", "values": [{"measurement": "ratio of IC50, compound 6 versus its enantiomer compound 5", "setting": "[1]; 2 Ph+ ALL lines and BM transduced with BCR-ABL p190 fusion", "result": "greater than 1"}, {"measurement": "ratio of IC50, compound 6 versus its enantiomer compound 5", "setting": "[1]; 3 Ph- ALL lines", "result": "~1"}, {"measurement": "sensitivity of non-sensitive line after p190 transduction", "setting": "[1]; CCRF transduced with p190", "result": "becomes sensitized to compound 6"}, {"measurement": "ratio of IC50, compound 6 versus its enantiomer compound 5", "setting": "[1]; Ph+ALL primary patient sample", "result": "greater than 1"}, {"measurement": "gain of functional activity", "setting": "SphK2 null MEFs", "result": "no longer shows gain of functional activity"}, {"measurement": "IC50", "setting": "[2]", "result": "13.5 ± 2.6", "unit": "µM"}, {"measurement": "IC50", "setting": "BV173 Ph+ ALL cell line", "result": "3.8 ± 0.4", "unit": "µM"}, {"measurement": "IC50", "setting": "[3]", "result": "15.1 ± 1", "unit": "µM"}, {"measurement": "IC50", "setting": "[4]", "result": "8.2 ± 0.7", "unit": "µM"}, {"measurement": "tissue accumulation", "setting": "[5]", "result": "accumulates in tissues to higher levels than are present in blood"}, {"measurement": "differential sensitivity to compound 6 relative to its enantiomers", "setting": "SphK1 null MEFs", "result": "this difference is maintained"}, {"measurement": "IC50", "setting": "Blin-1 Ph- ALL cell line", "result": "6.9 ± 0.3", "unit": "µM"}, {"measurement": "sensitivity, combination with trametinib", "setting": "BCR-Abl- LAX7R cells", "result": "sensitive to this drug combination"}, {"measurement": "sensitivity, single agent", "setting": "BCR-Abl- LAX7R cells", "result": "not sensitive to compound 6 as a single agent"}, {"measurement": "effect on heart rate", "setting": "[6]", "result": "nor does it decrease heart rate"}]}
